The record followed here is PMC5750217 (Nature Communications, 2018).

Positions count from the first letter of the chain named.

In assay [1] the target is T1, ASCT1 (Homo sapiens, UniProt P43007).
T1 construct: expressed in transfected cells; host or cells: Xenopus laevis oocytes (cRNA injection)
T1 sequence (P43007 1-532): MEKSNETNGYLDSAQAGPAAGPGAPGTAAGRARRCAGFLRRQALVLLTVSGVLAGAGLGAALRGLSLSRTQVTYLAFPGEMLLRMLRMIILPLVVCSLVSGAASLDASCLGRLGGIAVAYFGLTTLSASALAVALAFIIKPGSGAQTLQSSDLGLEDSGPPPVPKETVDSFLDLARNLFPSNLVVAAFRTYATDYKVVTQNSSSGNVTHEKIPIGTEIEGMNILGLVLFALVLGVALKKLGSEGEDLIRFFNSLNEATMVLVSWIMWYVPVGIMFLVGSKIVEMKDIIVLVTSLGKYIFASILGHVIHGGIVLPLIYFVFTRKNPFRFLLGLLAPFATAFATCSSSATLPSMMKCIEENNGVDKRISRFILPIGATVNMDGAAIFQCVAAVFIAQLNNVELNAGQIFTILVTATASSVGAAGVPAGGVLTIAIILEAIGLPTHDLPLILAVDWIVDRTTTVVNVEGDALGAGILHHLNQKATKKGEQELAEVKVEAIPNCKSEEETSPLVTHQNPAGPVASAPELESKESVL
As to the kind of experiment: Two electrode voltage clamp, substrate-activated anion current in oocytes expressing ASCT1. Type of assay: cell-based. The protocol:
(§1) All chemicals were obtained from Sigma unless otherwise stated. Stage V oocytes were harvested from female Xenopus laevis (frogs) which were obtained from Nasco (Fort Alkinson, USA). Frogs were anaesthetised with 6.5 mM tricaine neutralised with 7.14 mM sodium bicarbonate. After making an incision in the abdomen of the frog, ovarian sacs were removed and stored in OR-2 buffer (82.5 mM NaCl, 2 mM KCl, 1 mM MgCl2, 5 mM hemisodium HEPES, pH 7.5). This surgical procedure follows a protocol (#2016/970) approved by the University of Sydney Animal Ethics Committee under the Australian Code of Practice for the Care and Use of Animals for Scientific Purposes. […]
(§2) After 2–4 days of microinjection, current recordings were made using the two electrode voltage clamp technique with a Geneclamp 500 amplifier (Axon Instruments, Foster City, CA) interfaced with a MacLab 2e chart recorder (ADI Instruments, Sydney, Australia) using the chart software, and a Digidata 1322A (Axon Instruments) controlled by an IBM-compatible computer using the pClamp software (version 10, Molecular Devices, Union City, CA). […] Current–voltage relationships were calculated by subtracting steady state current measurements in the absence of substrate from corresponding current measurements in the presence of substrate. […]

For assay [2], the target named is T2, A1-T458S (mutant ASCT1) (Homo sapiens, UniProt P43007, T458S).
T2 construct: expressed in transfected cells; host or cells: Xenopus laevis oocytes (cRNA injection)
T2 sequence (P43007 1-532 T458S): T1 sequence (P43007 1-532) with T458S
As to the kind of experiment: Two electrode voltage clamp, substrate-activated anion current in oocytes expressing A1-T458S. It counts as cell-based. The conditions noted are these: NO3−-containing buffer, current at +60 mV, dash = substrate did not generate currents. How it is done: as §1, §2

On to `N[C@@H](CCC(=O)Nc1ccc([N+](=O)[O-])cc1)C(=O)O` [GPNA, glutamyl-p-nitroanilide], for which the “GPNA % inhibition of L-serine activated current” value in assay [1] (ASCT1, GPNA co-applied with EC50 of L-serine, 300 µM GPNA / 1 mM GPNA (Table 1 footnote)) was found to be 26 ± 3%.

Turning to `NC(=O)CC[C@H](N)C(=O)O` [L-glutamine], the “EC50 of substrate-activated current” value in assay [2] was “does not respond”. In the case of `N[C@@H](CO)C(=O)O` [L-serine], the EC50 in assay [2] came out at 106 ± 4 µM; in assay [1] (ASCT1 in oocytes, NO3−-containing buffer, current at +60 mV, dash = substrate did not generate currents), 100 ± 20 µM.

One may read the EC50 as the concentration needed to bring the measured effect to its halfway point. A higher EC50 goes with weaker potency.
